Experimental data reported in US9718772B2, “Crystalline (3Z,5S)-5-(hydroxymethyl)-1-[(2′-methyl-1,1′-biphenyl-4-yl)carbonyl]pyrrolidin-3-one O-methyloxime, and methods of using the same” (ObsEva SA, priority 2014, dated 2017).
“Also recorded” adds a separate entry of the source.

Tests used:
Format in all cases: physicochemical
[1] = MB (moisture balance) of the crystalline compound from ethyl acetate; conditions: crystallized from ethyl acetate
Description: Ethyl acetate was added to amorphous (3Z,5S)-5-(hydroxymethyl)-1-[(2′-methyl-1,1′-biphenyl-4-yl)carbonyl]pyrrolidin-3-one O-methyloxime. The suspension was sonicated in ambient bath tor 60 minutes to provide a clear solution that was further sonicated and cooled over 10 minutes. The clear solution was placed in the freezer for 4 days. The solvent was decanted and the solid was washed with hexane, then dried under nitrogen flow for 30 minutes. The resulting solid was analyzed by XRPD and confirmed to be crystalline (3Z,5S)-5-(hydroxymethyl)-1-[(2′-methyl-1,1′-biphenyl-4-yl)carbonyl]pyrrolidin-3-one O-methyloxime. FIGS. 7 and 9 are the DSC and TGA curves, respectively, obtained front testing this sample.

[2] = Solid stress experiments (humidity, temperature, pressure, grinding, milling; XRPD)
Description: Solid stress experiments were conducted on crystalline (3Z,5S)-5-(hydroxymethyl)-1-[(2′-methyl-1,1′-biphenyl-4-yl)carbonyl]pyrrolidin-3-one O-methyloxime and amorphous (3Z,5S)-5-(hydroxymethyl)-1-[(2′-methyl-1,1′-biphenyl-4-yl)carbonyl]pyrrolidin-3-one O-methyloxime and the results shown below in Tables 8 and 9. […] Stressing at 97% RH for the same time caused the material to deliquesce.

[3] = Comparative stability study: slurries stirred in pH 7 phosphate buffer (USP) at 25° C., observation and XRPD; conditions: for XRPD pattern of solids after stirring in pH 7 buffer: stirred 24 hours at 25° C., solids air dried overnight (FIG. 4, FIG. 5)
Description: Slurries of crystalline (3Z,5S)-5-(hydroxymethyl)-1-[(2′-methyl-1,1′-biphenyl-4-yl)carbonyl]pyrrolidin-3-one O-methyloxime and amorphous (3Z,5S)-5-(hydroxymethyl)-1-[(2′-methyl-1,1′-biphenyl-4-yl)carbonyl]pyrrolidin-3-one O-methyloxime were prepared by weighing directly into vials 100 mg of crystalline or amorphous material, About 3 mL of pH 7 phosphate buffer USP was added to each sample. Samples of each of the slurries were stirred in pH 7 phosphate buffer (USP) at 25° C. for 24 hours. At the end of 24 hours, the solvent was removed from the sample by pipetting out and solids allowed to air dry in the fumehood overnight. Solids were then submitted for XRPD analysis. Both the samples first appeared as white powders. Pictures of the samples were taken at time points corresponding to 0.5 min, 15 min, 1 hour, 3 hours and 24 hours after adding the pH 7 phosphate buffer.

[4] = Vacuum-drying of the crystalline compound, XRPD comparison (FIG. 2); conditions: vacuum-drying at about 45° C. for about 65 hours; crystallized from diethyl ether
Description: “After crystallization” means after preparation of the solid and drying at ambient temperature to about 45° C.
23 mg of the solid was then further vacuum-dried at 45° C. for an additional 65 hours. The resulting solid was analyzed by XRPD and confirmed to be the crystalline compound.

[5] = Comparative stability study: slurries stirred in pH 7 phosphate buffer (USP) at 25° C., observation and XRPD; conditions: in pH 7 phosphate buffer at 25° C., T = 5 min
[6] = 75% RH, amorphous starting material
[7] = 10,000 psi, 1 minute, crystallized from Diethyl Ether
[8] = Ether stress, solid in solvent at ambient, 3 days (slurry)

- weight gain from 5% RH to 95% RH ([1]; MB (moisture balance)): 3.25% weight gain from 5% RH to 95% RH
- weight loss from 95% RH to 5% RH ([1]; MB (moisture balance)): 1.44% weight loss from 95% RH to 5% RH
- Post MB XRPD ([1]; after moisture balance): Crystalline form and Amorphous
- Habit/Description ([2]; 40° C., 10 days): Rounded chunks
- XRPD Result ([2]; 40° C., 10 days): Amorphous
- Habit/Description ([2]; 40° C./75% RH, 1 day): Oil drops
- Habit/Description ([2]; 1 minute grind, crystallized from Diethyl Ether): White Solid
- Habit/Description ([2]; 70° C., 1 day): Oil puddle
- Habit/Description ([2]; 70° C., 6 days): Rounded chunks, clear oil drops
- XRPD Result ([2]; 70° C., 6 days): Amorphous
- weight gain ([2]; 75% RH, after 1 day): 2.5% weight gain after 1 day
- weight gain ([2]; 75% RH, after 5 days): 3.7% weight gain after 5 days
- weight gain ([2]; 75% RH, after 12 days): 6.6% weight gain after 12 days
- weight gain ([2]; 75% RH, after 20 days): 2.9% weight gain after 20 days
- Habit/Description [2, 6]: White jagged flakes, chunks, no
- XRPD Result [2, 6]: Amorphous
- Habit/Description ([2]; 97% RH, 3 days, amorphous starting material): Deliquesced
- Habit/Description ([2]; 97% RH, 3 days, crystallized from Ethyl Acetate): Deliquesced
- Habit/Description [2, 7]: White Solid
- XRPD Result [2, 7]: remained in crystalline form
- Habit/Description [2, 8]: White chunks, bits
- XRPD Result [2, 8]: Amorphous
- Habit/Description ([2]; Milling with 10μL toluene, after 10 minutes): Stick gum like solid after 10
- Habit/Description ([2]; Milling with 10μL toluene, by 70 minutes): minutes, sticky film by 70 minutes
- Habit/Description ([2]; Milling with 25 μL water, ~10 minutes): Sticky gum-like solid
- Habit/Description ([2]; Solid wet with ethyl ether, after 1 day at ambient): Chunks, few areas of birefringence
- Habit/Description ([2]; Solid wet with ethyl ether, after 5 days ambient): Chunks, few areas with extinguish
- Observation of sample ([3]; Before adding buffer, listed as Amorphous form): White power
- Observation of sample ([3]; Before adding buffer, listed as Crystalline compound): White powder
- Observation of sample ([3]; in pH 7 phosphate buffer at 25° C., T = 0, listed as Crystalline compound): White powder dispersed
- Observation of sample ([3]; in pH 7 phosphate buffer at 25° C., T = 15 min, listed as Amorphous (3Z,5S)-5-(hydroxymethyl)-1-[(2-methyl-1,1′-biphenyl-4-yl)carbonyl]pyr): opaque sticky material
- Observation of sample ([3]; in pH 7 phosphate buffer at 25° C., T = 15 min, listed as Amorphous form): Opaque sticky round lump
- Observation of sample ([3]; in pH 7 phosphate buffer at 25° C., T = 15 min, listed as Crystalline compound): White powder dispersed
- Observation of sample ([3]; in pH 7 phosphate buffer at 25° C., T = 1 hour, listed as Amorphous form): Opaque sticky round lump
- Observation of sample ([3]; in pH 7 phosphate buffer at 25° C., T = 1 hour, listed as Crystalline compound): White solid round lump,
- Observation of sample ([3]; in pH 7 phosphate buffer at 25° C., T = 1 hour, listed as crystalline (3Z,5S)-5-(hydroxymethyl)-1-[(2′-methyl-1,1-biphenyl-4-yl)carbonyl]p): white sticky material
- Observation of sample ([3]; in pH 7 phosphate buffer at 25° C., T = 3 hours, listed as Amorphous form): Opaque sticky material
- Observation of sample ([3]; in pH 7 phosphate buffer at 25° C., T = 3 hours, listed as Crystalline compound): White sticky material
- Observation of sample ([3]; in pH 7 phosphate buffer at 25° C., T = 24 hours, listed as Amorphous form): Opaque sticky material
- Observation of sample ([3]; in pH 7 phosphate buffer at 25° C., T = 24 hours, listed as Crystalline compound): White sticky material
- XRPD pattern of solids after stirring in pH 7 buffer ([3]; listed as amorphous (3Z,5S)-5-(hydroxymethyl)-1-[(2-methyl-1,1′-biphenyl-4-yl)carbonyl]pyr): presence of amorphous phase
- solid form by XRPD after vacuum-drying [4]: does not change the solid form
- Observation of sample ([5]; listed as Amorphous form): Thick white sticky mass
- Observation of sample ([5]; listed as Crystalline compound): White powder dispersed
SMILES: CO/N=C1/C[C@@H](CO)N(C(=O)c2ccc(-c3ccccc3C)cc2)C1 [(3Z,5S)-5-(hydroxymethyl)-1-[(2′-methyl-1,1′-biphenyl-4-yl)carbonyl]pyrrolidin-3-one O-methyloxime]
- weight loss upon equilibration at 5% RH ([1]; MB (moisture balance)): 0.20% weight loss upon equilibration at 5% RH
- XRPD Result ([2]; 1 minute grind (by hand), crystallized from Diethyl Ether): mixture of the crystalline compound and the amorphous compound; also recorded: Crystalline form
- XRPD Result ([2]; 75% RH, 3 days, crystallized from Ethyl Acetate): remained unchanged; also recorded: Crystalline form
- XRPD pattern of solids after stirring in pH 7 buffer [3]: peaks consistent with those seen in the powder pattern of crystalline
